What was measured:
cells = conditions: cited from earlier work
[1] = absorption spectra (maxima and extinction coefficients) of benzo[c]xanthene dyes; assay type: physicochemical; conditions: for ABSORPTION, ACID MAXIMA (second) / EXTINCTION COEFFICIENT, ACID MAXIMA (second) / ABSORPTION, ACID MAXIMA (first) / EXTINCTION COEFFICIENT, ACID MAXIMA (first): acid form; for ABSORPTION, ACID MAXIMA (second) / EXTINCTION COEFFICIENT, ACID MAXIMA (second): longer-wavelength maximum; for ABSORPTION, ACID MAXIMA (first) / EXTINCTION COEFFICIENT, ACID MAXIMA (first): shorter-wavelength maximum; for ABSORPTION, BASE MAXIMUM / EXTINCTION COEFFICIENT, BASE MAXIMUM: base form
Experimental: (§1) A stock solution was prepared by dissolving 7.6 mg of compound 3 in 2.00 ml methanol. The stock solution was diluted ten-fold into 40 mM pH 9.00 potassium phosphate buffer. Absorbance solutions were prepared by further diluting 25 μl of the aqueous stock solution to 2.025 ml with 40 mM potassium phosphate buffers of the appropriate pH.

[2] = fluorescence excitation/emission and quantum yield of benzo[c]xanthene dyes; assay type: physicochemical; conditions: for FLUORESCENCE, ACID EMIT / FLUORESCENCE, ACID EXCITE: acid form; for FLUORESCENCE, BASE EMIT / FLUORESCENCE, BASE EXCITE: base form; for APPROX. QY. (quantum yield): relative to fluorescein or sulforhodamine 101
Text: Fluorescence data was obtained on a Perkin-Elmer Model 650-40 Fluorescence Spectrophotometer with a Perkin-Elmer/Hitachi 057 X-Y Recorder using a tenfold dilution of the absorbance solutions. An estimate of the quantum yield of the dyes relative to fluorescein or sulforhodamine 101 was obtained by integrating the emission spectrum of the dye excited at the same optical density as the standard.

physchem = conditions: 40 mm potassium phosphate buffer
Experimental: as §1

[3] = determination of the pKa for the benzo[c]xanthene indicators from plot of absorbance ratios versus pH; conditions: 40 mM potassium phosphate buffers
Experimental: as §1

[4] = potassium phosphate buffer, pH 7.0

Row | ABSORPTION, ACID MAXIMA (second) [1] [NM] | EXTINCTION COEFFICIENT, ACID MAXIMA (second) [1] | ABSORPTION, ACID MAXIMA (first) [1] [NM] | EXTINCTION COEFFICIENT, ACID MAXIMA (first) [1] | ABSORPTION, BASE MAXIMUM [1] [NM] | EXTINCTION COEFFICIENT, BASE MAXIMUM [1] | FLUORESCENCE, ACID EMIT [2] [NM] | FLUORESCENCE, ACID EXCITE [2] [NM] | FLUORESCENCE, BASE EMIT [2] [NM] | FLUORESCENCE, BASE EXCITE [2] [NM] | APPROX. QY. (quantum yield) [2] | pKa (physchem) | pKa [3] | Compound | membrane permeability (cells) | retention by cells (cells; due to its high membrane permeability) | Absorbance maximum (first) [1, 4] [nm] | Absorbance maximum (second) [1, 4] [nm] | extinction coefficient (first maximum) [1, 4] | extinction coefficient (second maximum) [1, 4]
1 |  |  |  |  |  |  |  |  |  |  |  |  |  | N#Cc1c(O)ccc(O)c1C#N [Dihydroxyphthalonitrile] | high membrane permeability | not well retained by cells |  |  |  | 
2 | 569 | 19.4 10^3 cm^-1 M^-1 | 529 | 22.2 10^3 cm^-1 M^-1 | 587 | 38.7 10^3 cm^-1 M^-1 | 599 | 530 | 630 | 590 | ~0.35 | 7.9 |  | O=C(O)c1ccc2c(c1)C(=O)OC21c2cc3c4c(c2Oc2c1ccc1cc(O)ccc21)CCCN4CCC3 (centres unmarked) [Compound 11, [h,i]julolidino-spiro[7H-benzo[c]xanthen-7,1'(3'H)-isobenzofuran]-3'-one] |  |  |  |  |  | 
3 | 544 | 21.6 10^3 cm^-1 M^-1 | 515 | 17.7 10^3 cm^-1 M^-1 | 573 | 44.1 10^3 cm^-1 M^-1 | 585 | 549 | 632 | 582 | ~0.19 | 7.6 |  | CN(C)c1ccc2c(c1)Oc1c(ccc3cc(O)ccc13)C21OC(=O)c2ccccc21 (centres unmarked) [Compound 5] |  |  |  |  |  | 
4 | 548 | 25.7 10^3 cm^-1 M^-1 | 518 | 23.2 10^3 cm^-1 M^-1 | 574 | 44.9 10^3 cm^-1 M^-1 | 587 | 556 | 636 | 581 | ~0.20 | 7.5 |  | CN(C)c1ccc2c(c1)Oc1c(ccc3cc(O)ccc13)C21OC(=O)c2cc(C(=O)O)ccc21 (centres unmarked) [Compound 8, 5'-carboxy-10-dimethylamino-3-hydroxy-spiro[7H-benzo[c]xanthene-7,1'(3'H)-isobenzofuran]-3'-one] |  |  |  |  |  | 
5 | 550 | 24.4 10^3 cm^-1 M^-1 | 518 | 20.5 10^3 cm^-1 M^-1 | 577 | 46.4 10^3 cm^-1 M^-1 | 583 | 557 | 632 | 582 | ~0.23 | 7.5 |  | CCN(CC)c1ccc2c(c1)Oc1c(ccc3cc(O)ccc13)C21OC(=O)c2ccccc21 (centres unmarked) [Compound 6] |  |  |  |  |  | 
6 | 508 | 28.5 10^3 cm^-1 M^-1 | 479 | 22.8 10^3 cm^-1 M^-1 | 537 | 44.4 10^3 cm^-1 M^-1 | 543 | 514 | 623 | 543 | ~0.35 |  | 7.80 | 5'-(and-6')-carboxy-3,10-dihydroxy-spiro[7H-benzo[c]xanthene-7,1'(3'H)-isobenzofuran]-3'-one [Compound 2] |  |  |  |  |  | 
7 | 514 | 25.3 10^3 cm^-1 M^-1 | 485 | 20.5 10^3 cm^-1 M^-1 | 547 | 40.4 10^3 cm^-1 M^-1 | 546 | 517 | 630 | 552 | ~0.48 | 7.65 |  | O=C(O)c1ccc2c(c1)C1(OC2=O)c2cc(Cl)c(O)cc2Oc2c1ccc1cc(O)ccc21 (centres unmarked) [Compound 3] |  |  |  |  |  | 
8 | 550 | 29.7 10^3 cm^-1 M^-1 | 517 | 26.2 10^3 cm^-1 M^-1 | 577 | 51.5 10^3 cm^-1 M^-1 | 583 | 558 | 633 | 582 | ~0.24 | 7.75 |  | CCN(CC)c1ccc2c(c1)Oc1c(ccc3cc(O)ccc13)C21OC(=O)c2ccc(C(=O)O)cc21 (centres unmarked) [Compound 9] |  |  |  |  |  | 
9 |  |  |  |  |  |  |  |  |  |  |  |  |  | CC(=O)Oc1ccc2c3c(ccc2c1)C1(OC(=O)c2cc(C(=O)O)ccc21)c1ccc(N(C)C)cc1O3 (centres unmarked) [Compound 14, 3-acetoxy-5'-carboxy-10-dimethylamino-spiro[7H-benzo[c]xanthene-7,1'(3'H)-isobenzofuran]-3'-one] |  |  | 511 | 540 | 24,100 cm^-1 M^-1 | 21,700 cm^-1 M^-1
10 |  | 28.2 10^3 cm^-1 M^-1 | 480 | 24.8 10^3 cm^-1 M^-1 | 537 | 49.7 10^3 cm^-1 M^-1 | 539 | 513 | 618 | 540 | ~0.34 | 7.85 |  | O=C1OC2(c3ccc(O)cc3Oc3c2ccc2cc(O)ccc32)c2ccccc21 (centres unmarked) [Compound 1, 3,10-dihydroxy-spiro[7H-benzo[c]xanthen-7,1'(3'H)-isobenzofuran]-3'-one] |  |  |  |  |  | 
11 | 522 |  | 495 |  | 552 |  | 552 | 525 | 629 | 558 | ~0.38 | 7.7 |  | CCNc1cc2c(cc1C)C1(OC(=O)c3ccccc31)c1ccc3cc(O)ccc3c1O2 (centres unmarked) [Compound 7] |  |  |  |  |  | 

Reference: patent US4945171A, “Xanthene dyes having a fused (C) benzo ring” (Molecular Probes, Inc., priority 1987, dated 1990)
